Legend:
[1] = system: human acute myelogeneous leukemia EOL-1 cell line; assay: s.c. EOL-1 xenotransplantation model, tumor growth; type: in vivo; conditions: EOL-1 tumor-bearing male NOD/SCID mice; 75 mg/kg i.p. single dose (day 0)
Description: For calculation of the relative tumor volume (RTV) the tumor volumes at each measurement day were related to the day of first treatment. At each measurement day the median and mean tumor volumes per group and also the treated to control (T/C) values in percent were calculated.

HL-60 = assay: Prestoblue fluorescence cell viability assay, HL-60; type: cell-based; conditions: HL-60 (AML), 72 h incubation
Description: (§1) The objective of this study was to investigate potential effects of hydroxyethyl starch (“HES 130/0.4”) on cell viability of different leukemia cell lines. The 50% inhibition concentration (IC50) was determined in 28 different leukemia cell lines using the commercially available “Prestoblue fluorescence cell viability assay” after incubation with different “HES 130/0.4” concentrations for screening reasons. The concentration range of the tested HES was 100 mg/ml-[…].
(§2) PrestoBlue® reagent is a resazurin-based solution that functions as a cell viability indicator by using the reducing power of living cells to quantitatively measure the proliferation of cells. […] This change can be detected using fluorescence or absorbance measurements (see e.g. Int J Microbiol. 2013; 2013: 420601; published online Apr. 4, 2013 doi: 10.1155/2013/420601 PMCID PMC3638707). […]
(§3) Cells were harvested during the logarithmic growth period and counted using the commercially available cell counting device Countstar. […]
(§4) The test plate was incubated for 72 h in a humidified incubator at 37° C. with 5% CO2, and then measured by means of PrestoBlue assay. […] The plate was then incubated at room temperature for 30 minutes until fluorescence (T0) could be recorded using EnVision Multi Label Reader (Excitation: 540-570 nm/Emission: 580-610 nm). […]

JVM-2 = assay: Prestoblue fluorescence cell viability assay, JVM-2; type: cell-based; conditions: JVM-2 (CLL), 72 h incubation
Description: as §1, §2, §3, §4

Molt-4 = assay: Prestoblue fluorescence cell viability assay, Molt-4; type: cell-based; conditions: Molt-4 (ALL), 72 h incubation
Description: as §1, §2, §3, §4

Reh = assay: Prestoblue fluorescence cell viability assay, Reh; type: cell-based; conditions: 72 h incubation
Description: as §1, §2, §3, §4

MV-4-11 = assay: Prestoblue fluorescence cell viability assay, MV-4-11; type: cell-based; conditions: MV-4-11 (AML), 72 h incubation
Description: as §1, §2, §3, §4

MEC-1 = assay: Prestoblue fluorescence cell viability assay, MEC-1; type: cell-based; conditions: MEC-1 (CLL), 72 h incubation
Description: as §1, §2, §3, §4

RS4;11 = assay: Prestoblue fluorescence cell viability assay, RS4;11; type: cell-based; conditions: RS4;11 (ALL), 72 h incubation
Description: as §1, §2, §3, §4

SUP-B15 = assay: Prestoblue fluorescence cell viability assay, SUP-B15; type: cell-based; conditions: SUP-B15 (ALL), 72 h incubation
Description: as §1, §2, §3, §4

MOLM-13 = assay: Prestoblue fluorescence cell viability assay, MOLM-13; type: cell-based; conditions: MOLM-13 (AML), 72 h incubation
Description: as §1, §2, §3, §4

JVM-3 = assay: Prestoblue fluorescence cell viability assay, JVM-3; type: cell-based; conditions: JVM-3 (CLL), 72 h incubation
Description: as §1, §2, §3, §4

CCRF-SB = assay: Prestoblue fluorescence cell viability assay, CCRF-SB; type: cell-based; conditions: CCRF-SB (ALL), 72 h incubation
Description: as §1, §2, §3, §4

MOLM-16 = assay: Prestoblue fluorescence cell viability assay, MOLM-16; type: cell-based; conditions: MOLM-16 (AML), 72 h incubation
Description: as §1, §2, §3, §4

MEC-2 = assay: Prestoblue fluorescence cell viability assay, MEC-2; type: cell-based; conditions: MEC-2 (CLL), 72 h incubation
Description: as §1, §2, §3, §4

THP-1 = assay: Prestoblue fluorescence cell viability assay, THP-1; type: cell-based; conditions: THP-1 (AML), 72 h incubation
Description: as §1, §2, §3, §4

MEG-01 = assay: Prestoblue fluorescence cell viability assay, MEG-01; type: cell-based; conditions: MEG-01 (CML), 72 h incubation
Description: as §1, §2, §3, §4

K-562 = assay: Prestoblue fluorescence cell viability assay, K-562; type: cell-based; conditions: K-562 (CML), 72 h incubation
Description: as §1, §2, §3, §4

JVM-13 = assay: Prestoblue fluorescence cell viability assay, JVM-13; type: cell-based; conditions: JVM-13 (CLL), 72 h incubation
Description: as §1, §2, §3, §4

Kasumi-1 = assay: Prestoblue fluorescence cell viability assay, Kasumi-1; type: cell-based; conditions: Kasumi-1 (AML), 72 h incubation
Description: as §1, §2, §3, §4

NALM 6 = assay: Prestoblue fluorescence cell viability assay, NALM 6; type: cell-based; conditions: NALM 6 (ALL), 72 h incubation
Description: as §1, §2, §3, §4

Jurkat = assay: Prestoblue fluorescence cell viability assay, Jurkat; type: cell-based; conditions: Jurkat (ALL), 72 h incubation
Description: as §1, §2, §3, §4

MUTZ-5 = assay: Prestoblue fluorescence cell viability assay, MUTZ-5; type: cell-based; conditions: MUTZ-5 (ALL), 72 h incubation
Description: as §1, §2, §3, §4

EHEB = assay: Prestoblue fluorescence cell viability assay, EHEB; type: cell-based; conditions: EHEB (CLL), 72 h incubation
Description: as §1, §2, §3, §4

MHH-CALL-2 = assay: Prestoblue fluorescence cell viability assay, MHH-CALL-2; type: cell-based; conditions: MHH-CALL-2 (ALL), 72 h incubation
Description: as §1, §2, §3, §4

NB4 = assay: Prestoblue fluorescence cell viability assay, NB4; type: cell-based; conditions: NB4 (AML), 72 h incubation
Description: as §1, §2, §3, §4

PEER IE6 = assay: Prestoblue fluorescence cell viability assay, PEER IE6; type: cell-based; conditions: PEER IE6 (ALL), 72 h incubation
Description: as §1, §2, §3, §4

KU812 = assay: Prestoblue fluorescence cell viability assay, KU812; type: cell-based; conditions: KU812 (CML), 72 h incubation
Description: as §1, §2, §3, §4

TF-1 = assay: Prestoblue fluorescence cell viability assay, TF-1; type: cell-based; conditions: TF-1 (AML), 72 h incubation
Description: as §1, §2, §3, §4

ML-2 = assay: Prestoblue fluorescence cell viability assay, ML-2; type: cell-based; conditions: ML-2 (AML), 72 h incubation
Description: as §1, §2, §3, §4

O=P1(N(CCCl)CCCl)NCCCO1 (stereo not drawn) [Cyclophosphamide] was tested, and the “inhibition of tumor growth” value [1] was “significant inhibition”.

Molecule N.N.[Cl][Pt][Cl] [Cisplatin, cisplatin] has an IC50 (HL-60) of 450 µg/mL, a Max-inhibition (HL-60) of 100% and an IC50 (JVM-2) of 180 µg/mL. It also gave a Max-inhibition (JVM-2) of 100%, an IC50 (Molt-4) of 150 µg/mL and a Max-inhibition (Molt-4) of 100%. The Max-inhibition (Reh; Reh (AML)) was 100%, the IC50 (Reh; Reh (B-ALL)) was 170 µg/mL and the IC50 (MV-4-11) was 160 µg/mL. It also gave a Max-inhibition (MV-4-11) of 100%, an IC50 (MEC-1) of 1150 µg/mL and a Max-inhibition (MEC-1) of 100%. For the same molecule, the IC50 (RS4;11) was 50 µg/mL, the Max-inhibition (RS4;11) was 100% and the IC50 (SUP-B15) was 450 µg/mL. For the same molecule, the Max-inhibition (SUP-B15) was 100%, the IC50 (MOLM-13) was 340 µg/mL and the Max-inhibition (MOLM-13) was 100%. It also gave an IC50 (JVM-3) of 270 µg/mL, a Max-inhibition (JVM-3) of 100% and an IC50 (CCRF-SB) of 100 µg/mL. It also gave a Max-inhibition (CCRF-SB) of 100%, an IC50 (MOLM-16) of 650 µg/mL and a Max-inhibition (MOLM-16) of 100%. For the same molecule, the IC50 (MEC-2) was 1670 µg/mL, the Max-inhibition (MEC-2) was 100% and the IC50 (THP-1) was 640 µg/mL. For the same molecule, the Max-inhibition (THP-1) was 100%, the IC50 (MEG-01) was 830 µg/mL and the Max-inhibition (MEG-01) was 100%. It also gave an IC50 (K-562) of 1290 µg/mL, a Max-inhibition (K-562) of 100% and an IC50 (JVM-13) of 180 µg/mL. It also gave a Max-inhibition (JVM-13) of 100%, an IC50 (Kasumi-1) of 780 µg/mL and a Max-inhibition (Kasumi-1) of 100%. It also gave an IC50 (NALM 6) of 240 µg/mL, a Max-inhibition (NALM 6) of 100% and an IC50 (Jurkat) of 200 µg/mL. For the same molecule, the Max-inhibition (Jurkat) was 100%, the IC50 (MUTZ-5) was 190 µg/mL and the Max-inhibition (MUTZ-5) was 100%. For the same molecule, the IC50 (EHEB) was 490 µg/mL, the Max-inhibition (EHEB) was 100% and the IC50 (MHH-CALL-2) was 140 µg/mL. The Max-inhibition (MHH-CALL-2) was 100%, the IC50 (NB4) was 140 µg/mL and the Max-inhibition (NB4) was 100%. For the same molecule, the IC50 (PEER IE6) was 3730 µg/mL, the Max-inhibition (PEER IE6) was 100% and the IC50 (KU812) was 250 µg/mL. For the same molecule, the Max-inhibition (KU812) was 100%, the IC50 (TF-1) was 1720 µg/mL and the Max-inhibition (TF-1) was 100%. It also gave an IC50 (ML-2) of 350 µg/mL and a Max-inhibition (ML-2) of 100%.

Source: patent publication US10272102B2, “Hydroxyalkyl starch for the treatment of hematological neoplasms” (FRESENIUS KABI DEUTSCHLAND GMBH, priority 2013, dated 2019)
